Assay results taken from US20260217735A1, “HETEROCYCLES AND USES THEREOF” (Kumquat Biosciences Inc., priority 2023, published 2026).

Experiments:
KRAS G12D = target: T1, KRAS G12D (Homo sapiens, UniProt P01116, G12D); test: HTRF assay, KRAS G12D interaction with SOS1; assay type: biochemical; settings: bins <500 nM / 500 nM to 1000 nM, read-out: Inhibition of KRAS G12D (IC50)
T1 construct: made in house; host or cells: E. coli, e.g. BL21 (DE3)
Source text: (§1) This assay can be also used to assess a selective inhibition or reduction of signaling output of a mutant Ras protein relative to a wildtype, or relative to a different mutant Ras protein. For example, the equilibrium interaction of wildtype KRAS or K-Ras mutant (e.g., wildtype or a mutant thereof) with SOS1 (e.g., hSOS1) can be assessed as a proxy or an indication for the ability of a subject compound to bind and inhibit Ras protein. The HTRF assay detects from (i) a fluorescence resonance energy transfer (FRET) donor (e.g., antiGST-Europium) that is bound to GST-tagged K-Ras mutant to (ii) a FRET acceptor (e.g., anti-6His-XL665) bound to a His-tagged hSOSL1.
(§2) The assay buffer can contain ~5 mM HEPES pH 7.4, ~150 mM NaCl, ~1 mM DTT, 0.05% BSA and 0.0025% (v/v) Igepal. A Ras working solution is prepared in an assay buffer containing typically a suitable amount of the protein construct (e.g., GST-tagged K-Ras mutant) and the FRET donor (e.g., antiGST-Eu(K) from Cisbio, France). A SOS1 working solution is prepared in an assay buffer containing suitable amount of the protein construct (e.g., His-hSOS1) and the FRET acceptor (e.g., anti-6His-XL665 from Cisbio, France). A suitable amount of the protein construct will depend on the range of activity or range of IC50 values being detected or under investigation. For detecting an IC50 within a range of 500 nM, the protein constructs of the same range of molarity can be utilized.
(§3) A fixed volume of DMSO with or without test compound is transferred into a 384-well plate. Ras working solution is added to all wells of the test plate. SOS1 working solution is added to all wells except for those that are subsequently filled with inhibitor control solution. Upon incubation for about 10 minutes or longer, the fluorescence is measured with a M1000Pro plate reader (Tecan) using HTRF detection (excitation 337 nm, emission 1: 620 nm, emission 2: 665 nm). Compounds are tested in duplicate at different concentrations (for example, 10 μM, 2.5 μM, 0.63 μM, 0.16 μM, 0.04 μM, 0.01 μM test compound). The ratiometric data (i.e., emission 2 divided by emission 1) is used to calculate IC50 values against Ras using GraphPad Prism (GraphPad software). Signaling output measured in terms of IC50 values can be obtained and a ratio of IC50 against one mutant relative to another mutant can be calculated. For instance, a selective reduction of K-Ras G12S signaling output can be evidenced by a ratio greater than one. In particular, a selective reduction of K-Ras G12S signaling relative to K-Ras WT signaling is evidenced if the ratio of IC50 (against K-Ras WT) to IC50 (against K-Ras G12S) is greater than 1.

KRAS WT = target: T2, KRAS WT (Homo sapiens, UniProt P01116); test: HTRF assay, wildtype KRAS interaction with SOS1; assay type: biochemical; settings: bins <500 nM / 500 nM to 1000 nM, read-out: Inhibition of KRAS WT (IC50)
T2 construct: made in house; host or cells: E. coli, e.g. BL21 (DE3)
T2 sequence (P01116 1-188 isoform P01116-2): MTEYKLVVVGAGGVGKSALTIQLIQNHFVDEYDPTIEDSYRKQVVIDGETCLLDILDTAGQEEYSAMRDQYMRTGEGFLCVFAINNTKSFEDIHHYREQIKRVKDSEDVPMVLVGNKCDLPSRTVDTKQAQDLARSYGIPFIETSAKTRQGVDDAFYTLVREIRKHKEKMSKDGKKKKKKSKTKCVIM
Source text: as §1, §2, §3

KRAS G12V = target: T3, KRAS G12V (Homo sapiens, UniProt P01116, G12V); test: HTRF assay, KRAS G12V interaction with SOS1; assay type: biochemical; settings: bins <500 nM / 500 nM to 1000 nM, read-out: Inhibition of KRAS G12V (IC50)
T3 construct: made in house; host or cells: E. coli, e.g. BL21 (DE3)
T3 sequence (P01116 1-188 isoform P01116-2 G12V): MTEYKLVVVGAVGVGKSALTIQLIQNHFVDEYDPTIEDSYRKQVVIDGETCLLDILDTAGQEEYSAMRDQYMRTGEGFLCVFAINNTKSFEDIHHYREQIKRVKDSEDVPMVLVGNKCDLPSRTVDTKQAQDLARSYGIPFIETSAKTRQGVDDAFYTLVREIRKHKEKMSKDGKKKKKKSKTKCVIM
Source text: as §1, §2, §3

KRAS G12S = target: T4, KRAS G12S (Homo sapiens, UniProt P01116, G12S); test: HTRF assay, KRAS G12S interaction with SOS1; assay type: biochemical; settings: bins <500 nM / 500 nM to 1000 nM, read-out: Inhibition of KRAS G12S (IC50)
T4 construct: made in house; host or cells: E. coli, e.g. BL21 (DE3)
T4 sequence (P01116 1-188 isoform P01116-2 G12S): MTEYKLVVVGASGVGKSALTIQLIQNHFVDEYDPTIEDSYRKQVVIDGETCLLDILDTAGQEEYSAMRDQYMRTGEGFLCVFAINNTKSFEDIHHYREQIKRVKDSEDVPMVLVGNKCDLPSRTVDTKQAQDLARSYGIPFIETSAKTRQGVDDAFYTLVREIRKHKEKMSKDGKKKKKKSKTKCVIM
Source text: as §1, §2, §3

MiaPaca2 cells = test: Ras cellular assay, growth of cells with K-Ras G12C mutation; assay type: cell-based; settings: Homo sapiens, MIA PaCa-2; cell proliferation assay; bins ≤500 nM / >500 nM; read-out: Inhibition of MiaPaca2 Cells (IC50)
Procedure: For example, this assay can be also used to assess selective growth inhibition of a mutant Ras protein relative to a wildtype or different mutant Ras protein.
MIA PaCa-2 (ATCC CRL-1420) and NCI-H1792 (ATCC CRL-5895) cell lines comprise a G12C mutation and can be used to assess Ras cellular signaling in vitro, e.g., in response to an inhibitor compound of the present disclosure. […] MIA PaCa-2 culture medium is prepared with DMEM/Ham's F12 (e.g., with stable glutamine, 10% FCS, and 2.5% horse serum. NCI-H1792 culture medium is prepared with RPMI 1640 (e.g., with stable glutamine) and 10% FCS.
On a first day (e.g., Day 1), Softagar (Select Agar, Invitrogen, 3% in ddH2O autoclaved) is boiled and tempered at 48° C. Appropriate culture medium (i.e., medium) is tempered to 37° C. Agar (3%) is diluted 1:5 in medium (=0.6%) and plated into 96 well plates (Corning, #3904), then incubated at room temperature for agar solidification. A 3% agar is diluted to 0.25% in medium (1:12 dilution) and tempered at 42° C. Cells are trypsinized, counted, and tempered at 37° C. The cells (e.g., MIA PaCa-2 at about 125-150 cells, NCI-H1792 at about 1000 cells) are resuspended in […] 0.25% Agar and plated, followed by incubation at room temperature for agar solidification. The wells are overlaid with […] of the medium. Sister wells in a separate plate are plated for time zero determination. All plates are incubated overnight at 37° C. and 5% CO2.
On a second day (e.g., Day 2), time zero values are measured. A […] volume of Cell Titer 96 Aqueous Solution (Promega) is added to each well and incubated in the dark at 37° C. and 5% CO2. Absorption can be measured at 490 nm and reference wavelength 660 nm. DMSO-prediluted test compounds are added to wells of interest, e.g., with HP Dispenser, to one or more desired concentrations (e.g., a final DMSO concentration of 0.3%).
On a tenth day (e.g., Day 10), absorption by wells treated with the test compounds and control wells are measured with, for example, Cell Titer 96 AQueous and analyzed in comparison to the time zero measurements. The IC50 values are determined using the four parameter fit. The resulting IC50 value is a measurement of the ability of the test compound to reduce cell growth of Ras-driven cells (e.g., tumor cell lines) in vitro and/or in vivo.

T1 sequence (P01116 1-188 isoform P01116-2 G12D): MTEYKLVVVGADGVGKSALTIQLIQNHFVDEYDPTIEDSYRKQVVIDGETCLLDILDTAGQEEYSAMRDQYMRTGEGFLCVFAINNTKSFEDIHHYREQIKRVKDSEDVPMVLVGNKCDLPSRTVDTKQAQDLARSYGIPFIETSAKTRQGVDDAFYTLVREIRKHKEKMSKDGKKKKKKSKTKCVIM

Row | SMILES | IC50 (KRAS G12D) | IC50 (KRAS WT) | IC50 (KRAS G12V) | IC50 (KRAS G12S) | IC50 (MiaPaca2 cells)
1 | Cc1cn(C(=O)N2CC[C@@]23CCN(c2nc(OC[C@@]45CCCN4C[C@H](F)C5)nc4c(F)c(-c5ccc(F)c6sc(N)c(C#N)c56)c(Cl)cc24)C3)cn1 (atropisomer, axis not shown; (aS)) [Compound 107, (R)-2-amino-4-(6-chloro-8-fluoro-2-(((2R,7aS)-2-fluorotetrahydro-1H-pyrrolizin-7a(5H)-yl)methoxy)-4-((R)-1-(4-methyl-1H-imidazole-1-carbonyl)-1,6-diazaspiro[3.4]octan-6-yl)quinazolin-7-yl)-7-fluorobenzo[b]thiophene-3-carbonitrile] | < 500 nM | < 500 nM | < 500 nM | < 500 nM | ≤ 500 nM
2 | CC[C@H]1N(C(=O)n2cc(C#N)nc2C)C[C@]12CCCCN(c1nc(OC[C@@]34CCCN3C[C@H](F)C4)nc3c(F)c(-c4ccc(F)c5sc(N)c(C#N)c45)c(Cl)cc13)C2 (atropisomer, axis not shown; (aS)) [Compound 117, 1-((1R,4R)-6-(7-((R)-2-amino-3-cyano-7-fluorobenzo[b]thiophen-4-yl)-6-chloro-8-fluoro-2-(((2R,7aS)-2-fluorotetrahydro-1H-pyrrolizin-7a(5H)-yl)methoxy)quinazolin-4-yl)-1-ethyl-2,6-diazaspiro[3.6]decane-2-carbonyl)-2-methyl-1H-imidazole-4-carbonitrile] | < 500 nM | < 500 nM | < 500 nM | < 500 nM | ≤ 500 nM
3 | CN(c1nc(OC[C@@]23CCCN2C[C@H](F)C3)nc2c(F)c(-c3ccc(F)c4sc(N)c(C#N)c34)c(Cl)cc12)C1CN(C(=O)n2ccnc2)CC1F (single isomer, unassigned) [Compound 189] | – | – | – | – | ≤ 500 nM
4 | CCN(c1nc(OCC23CCCN2C(COc2cc(C(F)(F)F)ncn2)CC3)nc2c(F)c(-c3ccc(F)c4sc(N)c(C#N)c34)c(Cl)cc12)[C@@H]1CCN(C(=O)n2cc(C)nc2C)[C@@H]1C (single isomer, unassigned) [Compound 217] | – | – | – | – | ≤ 500 nM
5 | CC1CC(N(C)c2nc(OC[C@@]34CCCN3C[C@H](F)C4)nc3c(F)c(-c4ccc(F)c5sc(N)c(C#N)c45)c(Cl)cc23)CCN1C(=O)n1ccnc1 (stereo partly drawn) [Compound 209, 4-(4-((1-(1H-imidazole-1-carbonyl)-2-methylpiperidin-4-yl)(methyl)amino)-6-chloro-8-fluoro-2-(((2R,7aS)-2-fluorotetrahydro-1H-pyrrolizin-7a(5H)-yl)methoxy)quinazolin-7-yl)-2-amino-7-fluorobenzo[b]thiophene-3-carbonitrile] | < 500 nM | – | – | – | ≤ 500 nM
6 | C=C1CN2CC(=C)CC2(COc2nc(N(CC)[C@@H]3CCN(C(=O)n4cnc(Cl)n4)[C@@H]3C)c3cc(C(F)(F)F)c(-c4ccc(F)c5sc(N)c(C#N)c45)c(F)c3n2)C1 [Compound 219, 2-amino-4-(4-(((2R,3R)-1-(3-chloro-1H-1,2,4-triazole-1-carbonyl)-2-methylpyrrolidin-3-yl)(ethyl)amino)-2-((2,6-dimethylenetetrahydro-1H-pyrrolizin-7a(5H)-yl)methoxy)-8-fluoro-6-(trifluoromethyl)quinazolin-7-yl)-7-fluorobenzo[b]thiophene-3-carbonitrile] | < 500 nM | < 500 nM | < 500 nM | < 500 nM | –

The next lines start with the values.

Row | IC50 (KRAS G12D) | IC50 (KRAS WT) | IC50 (KRAS G12V) | IC50 (KRAS G12S) | IC50 (MiaPaca2 cells) | SMILES
7 | < 500 nM | < 500 nM | < 500 nM | < 500 nM | ≤ 500 nM | CCN(c1nc(OC[C@@]23CCCN2C[C@H](F)C3)nc2c(F)c(-c3ccc(F)c4sc(N)c(C#N)c34)c(C(F)(F)F)cc12)[C@@H]1CCN(C(=O)n2cc(C)nc2C)[C@@H]1C (atropisomer, axis not shown; (aS)) [Compound 114, (S)-2-amino-4-(4-(((2R,3R)-1-(2,4-dimethyl-1H-imidazole-1-carbonyl)-2-methylpyrrolidin-3-yl)(ethyl)amino)-8-fluoro-2-(((2R,7aS)-2-fluorotetrahydro-1H-pyrrolizin-7a(5H)-yl)methoxy)-6-(trifluoromethyl)quinazolin-7-yl)-7-fluorobenzo[b]thiophene-3-carbonitrile]
8 | < 500 nM | < 500 nM | < 500 nM | < 500 nM | ≤ 500 nM | CCN(c1nc(OC[C@@]23CCCN2C[C@H](F)C3)nc2c(F)c(-c3ccc(F)c4sc(N)c(C#N)c34)c(C(F)(F)F)cc12)[C@@H]1CCN(C(=O)n2cnc(F)n2)[C@@H]1C (atropisomer, axis not shown; (aS)) [Compound 125, 2-amino-4-((S)-4-(ethyl((2R,3R)-1-(3-fluoro-1H-1,2,4-triazole-1-carbonyl)-2-methylpyrrolidin-3-yl)amino)-8-fluoro-2-(((2R,7aS)-2-fluorotetrahydro-1H-pyrrolizin-7a(5H)-yl)methoxy)-6-(trifluoromethyl)quinazolin-7-yl)-7-fluorobenzo[b]thiophene-3-carbonitrile]
9 | – | – | – | – | ≤ 500 nM | CC1CC(N(C)c2nc(OC[C@@]34CCCN3C[C@H](F)C4)nc3c(F)c(-c4ccc(F)c5sc(N)c(C#N)c45)c(Cl)cc23)CN1C(=O)n1cnc(F)n1 (mixture of isomers) [Compound 150, 2-amino-4-(6-chloro-8-fluoro-4-((1-(3-fluoro-1H-1,2,4-triazole-1-carbonyl)-5-methylpyrrolidin-3-yl)(methyl)amino)-2-(((2R,7aS)-2-fluorotetrahydro-1H-pyrrolizin-7a(5H)-yl)methoxy)quinazolin-7-yl)-7-fluorobenzo[b]thiophene-3-carbonitrile]
